From ChEMBL document CHEMBL1777778 (Bioorg Med Chem Lett, 2011)
≈ marks a conversion by molar mass, not a printed value.

Key:
[1] = Permeability across apical to basolateral side of human Caco2 cells at 10 uM after 21 days; format: ADME, cell-based; details: Caco-2, read-out: permeability
[2] = Half life in Hanover Wistar rat at 3 mg/kg, iv; format: ADME, organism-based; design: dose 3 mg/kg, route intravenous; details: in vivo
[3] = Oral bioavailability in Hanover Wistar rat at 3 mg/kg; format: ADME, organism-based; details: in vivo
[4] = Cmax in Hanover Wistar rat at 3 mg/kg, po; format: ADME, organism-based; design: dose 3 mg/kg, route oral; details: in vivo
[5] = Intrinsic clearance in human liver microsomes assessed per mg of protein; format: ADME, Microsome
[6] = Volume of distribution at steady state in Hanover Wistar rat at 3 mg/kg, iv; format: ADME, organism-based; design: dose 3 mg/kg, route intravenous; details: in vivo, read-out: Vdss
[7] = AUC in Hanover Wistar rat at 3 mg/kg, po; format: ADME, organism-based; design: dose 3 mg/kg, route oral; details: plasma
[8] = Intrinsic clearance in rat liver microsomes assessed per mg of protein; format: ADME, Microsome
[9] = Aqueous solubility of the compound in phosphate buffer at pH 6.5 by reverse phase HPLC analysis; format: physicochemical
[10] = Clearance in Hanover Wistar rat at 3 mg/kg, iv; format: ADME, organism-based; design: dose 3 mg/kg, route intravenous; details: in vivo
[11] = Permeability across basolateral to apical side in human Caco2 cells at 10 uM after 21 days; format: ADME, cell-based; details: Caco-2, read-out: permeability

Work on C[C@H](CS(C)(=O)=O)Nc1n[nH]c2nc(Oc3ccc(F)cc3F)ncc12 yielded a Papp A→B at 10 µM [1] of 3 ×10⁻⁶ cm/s, a half-life [2] of 3.4 h and a bioavailability [3] of 105%. The Cmax [4] was 446 ng/mL, the microsomal CLint [5] was 0.74 µL/min/mg and the Vd [6] was 8.1 L/kg. The AUC [7] was 1220 ng·h/mL, the microsomal CLint [8] was 6.2 µL/min/mg and the solubility [9] was 57.2 µg/mL (≈ 149 µM). For the same compound, the clearance [10] was 43.6 mL/min/kg and the Papp B→A at 10 µM [11] was 18.9 ×10⁻⁶ cm/s.
